According to PubChem BioAssay (NCI):
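Protocol summary: plate cells (96-well), add compound at 5 concentrations, incubate 48 h, interpolate endpoints linearly. GI50 is the concentration that inhibits growth by half. TGI marks complete inhibition of growth.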

Experiments:
Test in all cases: NCI-60 cell line screen, 48 h
[1] = tested on: A498 renal
[2] = tested on: EKVX NSCLC
[3] = tested on: KM12 colon
[4] = tested on: MDA-MB-435
[5] = tested on: OVCAR-5 ovarian
[6] = tested on: OVCAR-8 ovarian
[7] = tested on: RPMI-8226 leukemia
[8] = tested on: RXF 393 renal
[9] = tested on: SF-268 CNS
[10] = tested on: SNB-19 CNS

| SMILES | GI50 [1] [µM] | TGI [1] [µM] | GI50 [2] [µM] | TGI [2] [µM] | GI50 [3] [µM] | TGI [3] [µM] | GI50 [4] [µM] | TGI [4] [µM] | GI50 [5] [µM] | TGI [5] [µM] | GI50 [6] [µM] | TGI [6] [µM] | GI50 [7] [µM] | TGI [7] [µM] | GI50 [8] [µM] | TGI [8] [µM] | GI50 [9] [µM] | TGI [9] [µM] | GI50 [10] [µM] | TGI [10] [µM] |
| --- | --- | --- | --- | --- | --- | --- | --- | --- | --- | --- | --- | --- | --- | --- | --- | --- | --- | --- | --- | --- |
| O=C(c1ccccc1)c1nc2ccc(C(F)(F)F)cc2[n+]([O-])c1C(F)(F)F | 13.2 | 45.2 | 21.1 | > 100 | 37.3 | > 100 | 43.8 | > 100 | 34.6 | > 100 | 38.7 | > 100 | 16.4 | > 100 | 31.8 | > 100 | 39.9 | > 100 | 71.5 | > 100 |
| O=C(CCCCCCSc1nc(-c2ccc(Cl)cc2)cc(-c2ccc(Cl)cc2)n1)NO | 1.03 | 4.05 | 2.6 | 39.6 | 2.02 | > 50 | 1.86 | 13.6 | 1.55 | 5.63 | 1.43 | 8.1 | 1.7 | > 50 | 1.07 | 2.83 | 1.7 | 7.49 | 1.97 | 20.4 |
| O=C1c2c(O)cc(O)cc2OC(c2ccc(O)cc2O)C1O (centres undefined) | > 100 | > 100 | – | > 100 | – | > 100 | – | > 100 | > 100 | > 100 | > 100 | > 100 | > 100 | > 100 | – | > 100 | > 100 | > 100 | > 100 | > 100 |
| O=C(NCCCCCCCCNC(=O)c1cccc2ccccc12)c1cccc2ccccc12 | – | 56.8 | – | > 91.7 | – | > 100 | – | > 100 | – | > 100 | – | 79.5 | – | > 100 | – | 7.74 | – | > 81.8 | – | > 59.5 |
| CCCCn1sc(=O)n(Cc2ccc(CNC(=O)OCc3ccc4c(Br)cc(Br)c(O)c4n3)cc2)c1=O | 0.105 | 0.602 | > 40.6 | > 100 | 0.374 | > 24.4 | 0.257 | 0.731 | > 24.7 | > 100 | 0.415 | > 81.4 | 0.501 | > 100 | 0.47 | > 100 | 1.05 | > 100 | 2.66 | > 100 |
| Cn1c(=S)c2[nH]c(SCCN3CCCC3)nc2n(C)c1=O | – | > 100 | – | > 100 | – | > 100 | – | > 100 | – | > 100 | – | > 100 | – | > 100 | – | > 100 | – | > 100 | – | > 100 |
| Cc1ccc(S(=O)(=O)Cc2nc(-c3ccc(C(=O)NCc4cccnc4)cc3)oc2C)cc1 | > 100 | > 100 | > 100 | > 100 | 0.266 | > 100 | 0.054 | 12 | – | > 100 | < 0.01 | > 100 | 0.0673 | > 100 | 27.6 | > 100 | 19 | > 100 | 0.0869 | > 100 |
| C#CCOc1cccc(Nc2ncnc3ccc(NC(=O)CCl)cc23)c1 | 4.6 | 21.4 | 3.5 | 23.6 | 0.776 | 10.6 | 1.4 | 20.2 | 3.04 | 19.4 | 0.353 | > 65 | 1.22 | 13.6 | 4.47 | 19 | 0.674 | 10.3 | 1.88 | 81.9 |
| COc1ccc(-c2c(-c3cc(OC)c4c(c3)OCO4)noc2N)cc1 | 0.0268 | 0.342 | 1.74 | > 71.3 | 0.0161 | 0.827 | – | 0.0251 | 0.339 | 99.3 | 0.0654 | 22.8 | 0.0511 | 16.9 | 0.0167 | 0.0627 | 0.11 | > 91 | 0.0708 | > 100 |
| C=C1C(=O)O[C@H]2[C@H]1CC/C(COC(=O)c1ccc(C#N)cc1)=C\CC[C@@]1(C)O[C@@H]21 | 15.4 | 30 | 2.26 | 6.85 | 3.94 | 14.8 | 1.96 | 4.53 | 3.06 | 9.51 | 2.75 | 11.2 | 1.5 | 4.61 | 1.03 | 2.32 | 2.2 | 5.09 | 3.9 | 15.1 |
| COc1ccc(C(=O)COc2cccc(/C=C3\CSc4ccc(C)cc4C3=O)c2)cc1 | > 100 | > 100 | 25.1 | > 100 | 3.69 | > 100 | 3.59 | 83.9 | 51.9 | > 100 | 5.89 | > 100 | 1.89 | 6.47 | 19.9 | 49 | 19.3 | 72.9 | > 100 | > 100 |
| COC1=Nc2ccccc2S(=O)(=O)C=C1 | – | 33 | – | 32.1 | – | 28.4 | – | 24.8 | – | 31.1 | – | 19.5 | – | 4.81 | – | 8.69 | – | 48.6 | – | 56.7 |
| O=[N+]([O-])c1ccc2ncccc2c1Cl | 10.8 | 31.3 | 12.3 | 29.2 | 2.17 | 9.14 | 2.18 | 9.07 | 3.44 | > 100 | 2.96 | 8.69 | 0.435 | 6.57 | 2.74 | 8.81 | 3.89 | 13.9 | 4.2 | 23.4 |
